Where two headings read alike, the source gives them in different places.
Tests used:
Design in all cases: species or system Hepatitis C virus
[1] = test system: HCV replicon 1B; experiment: Cell-based HCV replicon assay (Replicon Assay B), replicon 1B; conditions: replicon RNA by real-time PCR, 3 days
Procedure: In an alternate assay (“Replicon Assay B”), 1000 cells were seeded per well in a 384-well collagen coated black plate from Greiner bio-one (Cat #781946) in 5% FBS. Inhibitors of this invention were added at 24 h post-seeding, and the plates were incubated for 3 days. Cells were subsequently lysed with Qiagen lysis buffer (Cat #1062731) to extract the RNA. HCV replicon RNA level was measured by real-time PCR using the RNA-to-CT kit from Applied Biosystem (Cat #4392656) and genotype-specific primers and probes. The amplicon was located within NS5B. […] (SEQ. ID NO. 2); the probe sequence was FAM-labeled […] (SEQ. ID NO. 3).
The real-time RT-PCR reactions were run on ABI PRISM 7900HT or Viia7 Sequence Detection System using the following program: 48° C. for 30 minutes, 95° C. for 10 minutes, 40 cycles of 95° C. for 15 sec, 60° C. for 1 minutes.
EC50 data for replicons 1A, 1AY93H and 2B were obtained using Replicon Assay A and EC50 data for replicon 1B was obtained using Replicon Assay B.

[2] = test system: HCV replicon 1A; experiment: Cell-based HCV replicon assay (Replicon Assay A), replicon 1A; conditions: replicon RNA by real time PCR, day 3
Outline: (§1)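 Replicon cells were seeded at 2000/well with compound, 10 serial dilutions starting at 333.3 nM to 1.667 nM, in 0.5% DMSO and 5% FBS, then harvested on day 3. Replicon RNA was measured by multiplex TaqMan RT-PCR with cyclophilin as endogenous control. EC50 is the concentration raising Ct by 1 over projected baseline.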

[3] = test system: HCV replicon 1A Y93H; experiment: Cell-based HCV replicon assay (Replicon Assay A), replicon 1AY93H; conditions: replicon RNA by real time PCR, day 3
Outline: as §1

[4] = test system: HCV replicon 2B; experiment: Cell-based HCV replicon assay (Replicon Assay A), replicon 2B; conditions: replicon RNA by real time PCR, day 3
Outline: as §1

[5] = read-out: EC50 replicon 1A Y93H, Replicon Assay A
[6] = read-out: EC50 replicon 2B, Replicon Assay A
[7] = Hepatitis C virus, 72 h, read-out: EC50 replicon 1A Y93H, Replicon Assay A
[8] = Hepatitis C virus, 72 h, read-out: EC50 replicon 2B, Replicon Assay A

Compound	EC50 ([1]; Hepatitis C virus, 72 h)	EC50 [2]	EC50 [3, 5]	EC50 [4, 6]	EC50 ([2]; Hepatitis C virus, 72 h)	EC50 [1]	EC50 [3, 7]	EC50 [4, 8]
COC(=O)N[C@H](C(=O)N1CCC[C@H]1c1ncc(-c2ccc3c(c2)OC(c2ccc4c(c2)OCCC4)n2c-3cc3cc(-c4cnc([C@@H]5C[C@H]6C[C@H]6N5C(=O)[C@@H](NC(=O)OC)C(C)C)[nH]4)ccc32)[nH]1)C(C)C (single isomer, unassigned) [Compound 50]	1.4 pM	1.4 pM	60 pM	36 pM	–	–	–	–
COC(=O)N[C@H](C(=O)N1CCC[C@H]1c1ncc(-c2ccc3c(c2)OC(c2ccc4c(c2)CCCO4)n2c-3cc3cc(-c4cnc([C@@H]5C[C@H]6C[C@H]6N5C(=O)[C@@H](NC(=O)OC)C(C)C)[nH]4)ccc32)[nH]1)C(C)C (single isomer, unassigned) [Compound 51]	2.5 pM	–	2130 pM	4770 pM	1.9 pM	–	–	–
COC(=O)N[C@H](C(=O)N1CCC[C@H]1c1ncc(-c2ccc3c(c2)OC(c2ccc4c(c2)CCCO4)n2c-3cc3cc(-c4cnc([C@@H]5C[C@H]6C[C@H]6N5C(=O)[C@@H](NC(=O)OC)C(C)C)[nH]4)ccc32)[nH]1)C(C)C (single isomer, unassigned) [Compound 52]	–	2.2 pM	454 pM	1670 pM	–	3.1 pM	–	–
CCN(CC)[C@@H](C(=O)N1[C@@H]2C[C@@H]2C[C@H]1c1ncc(-c2ccc3c(c2)cc2n3C(c3ccc4c(c3)OCCC4)Oc3cc(-c4cnc([C@@H]5CCCN5C(=O)[C@@H](NC(=O)OC)C5CCOCC5)[nH]4)cc(F)c3-2)[nH]1)c1ccccc1 (single isomer, unassigned) [Compound 54]	2.4 pM	–	–	11 pM	4.9 pM	–	8 pM	–
COC(=O)NC(C(=O)N1CCC[C@H]1c1ncc(-c2ccc3c(c2)cc2n3C(c3ccc4c(c3)OC(C)CC4)Oc3cc(-c4cnc([C@@H]5CCCN5C(=O)[C@@H](NC(=O)OC)C(C)C)[nH]4)cc(F)c3-2)[nH]1)C1C[C@@H](C)O[C@@H](C)C1 (single isomer, unassigned) [Compound 59]	2.7 pM	3.2 pM	15 pM	17 pM	–	–	–	–
COC(=O)NC(C(=O)N1CCC[C@H]1c1ncc(-c2ccc3c(c2)cc2n3C(c3ccc4c(c3)OC(C)CC4)Oc3cc(-c4cnc([C@@H]5CCCN5C(=O)[C@@H](NC(=O)OC)C(C)C)[nH]4)cc(F)c3-2)[nH]1)C1C[C@@H](C)O[C@@H](C)C1 (single isomer, unassigned) [Compound 60]	–	3 pM	20 pM	25 pM	–	3.1 pM	–	–
COC(=O)NC(C(=O)N1CCC[C@H]1c1ncc(-c2ccc3c(c2)cc2n3C(c3ccc4c(c3)OC(C)CC4)Oc3cc(-c4cnc([C@@H]5CCCN5C(=O)[C@@H](NC(=O)OC)C(C)C)[nH]4)cc(F)c3-2)[nH]1)C1CCOC(C)(C)C1 (single isomer, unassigned) [Compound 63]	2 pM	2.6 pM	32 pM	16 pM	–	–	–	–
COC(=O)NC(C(=O)N1CCC[C@H]1c1ncc(-c2ccc3c(c2)cc2n3C(c3ccc4c(c3)OC(C)CC4)Oc3cc(-c4cnc([C@@H]5CCCN5C(=O)[C@@H](NC(=O)OC)C(C)C)[nH]4)cc(F)c3-2)[nH]1)C1CCOC(C)(C)C1 (single isomer, unassigned) [Compound 64]	–	2.7 pM	60 pM	26 pM	–	4 pM	–	–
COC(=O)NC(C(=O)N1[C@@H]2C[C@@H]2C[C@H]1c1ncc(-c2ccc3c(c2)cc2n3C(c3ccc4c(c3)CCCO4)Oc3cc(-c4cnc([C@@H]5CCCN5C(=O)[C@@H](NC(=O)OC)C(C)C)[nH]4)cc(F)c3-2)[nH]1)C1C[C@@H](C)O[C@@H](C)C1 (single isomer, unassigned) [Compound 65]	1.8 pM	–	43 pM	935 pM	2.9 pM	–	–	–
COC(=O)NC(C(=O)N1[C@@H]2C[C@@H]2C[C@H]1c1ncc(-c2ccc3c(c2)cc2n3C(c3ccc4c(c3)OCCC4)Oc3cc(-c4cnc([C@@H]5CCCN5C(=O)[C@@H](NC(=O)OC)C(C)C)[nH]4)cc(F)c3-2)[nH]1)C1C[C@@H](C)O[C@@H](C)C1 (single isomer, unassigned) [Compound 68]	2.3 pM	1.8 pM	5 pM	16 pM	–	–	–	–
COC(=O)NC(C(=O)N1[C@@H]2C[C@@H]2C[C@H]1c1ncc(-c2ccc3c(c2)cc2n3C(c3ccc4c(c3)OCCC4)Oc3cc(-c4cnc([C@@H]5CCCN5C(=O)[C@@H](NC(=O)OC)C(C)C)[nH]4)cc(F)c3-2)[nH]1)C1CCOC(C)(C)C1 (single isomer, unassigned) [Compound 69]	3.5 pM	–	–	–	3.2 pM	–	5 pM	8 pM
COC(=O)NC(C(=O)N1[C@@H]2C[C@@H]2C[C@H]1c1ncc(-c2ccc3c(c2)cc2n3C(c3ccc4c(c3)OCCC4)Oc3cc(-c4cnc([C@@H]5CCCN5C(=O)[C@@H](NC(=O)OC)C(C)C)[nH]4)cc(F)c3-2)[nH]1)C1CCOC(C)(C)C1 (single isomer, unassigned) [Compound 70]	–	2.8 pM	6 pM	12 pM	–	2.7 pM	–	–
COC(=O)NC(C(=O)N1CCC[C@H]1c1ncc(-c2ccc3c(c2)cc2n3C(c3ccc4c(c3)OCCC4)Oc3cc(-c4cnc([C@@H]5CCCN5C(=O)[C@@H](NC(=O)OC)C(C)C)[nH]4)cc(F)c3-2)[nH]1)C1C[C@@H](C)O[C@@H](C)C1 (single isomer, unassigned) [Compound 76]	3.2 pM	2.5 pM	12 pM	4 pM	–	–	–	–
COC(=O)NC(C(=O)N1CCC[C@H]1c1ncc(-c2ccc3c(c2)cc2n3C(c3ccc4c(c3)OCCC4)Oc3cc(-c4cnc([C@@H]5CCCN5C(=O)[C@@H](NC(=O)OC)C(C)C)[nH]4)cc(F)c3-2)[nH]1)C1C[C@@H](C)O[C@H](C)C1 (single isomer, unassigned) [Compound 78]	2.6 pM	2.2 pM	9 pM	4 pM	–	–	–	–
COC(=O)NC(C(=O)N1CCC[C@H]1c1ncc(-c2ccc3c(c2)cc2n3C(c3ccc4c(c3)OCCC4)Oc3cc(-c4cnc([C@@H]5CCCN5C(=O)[C@@H](NC(=O)OC)C(C)C)[nH]4)cc(F)c3-2)[nH]1)C1CCOC(C)(C)C1 (single isomer, unassigned) [Compound 79]	2.7 pM	–	6 pM	–	1.7 pM	–	–	7 pM
COC(=O)NC(C(=O)N1CCC[C@H]1c1ncc(-c2ccc3c(c2)cc2n3C(c3ccc4c(c3)OCCC4)Oc3cc(-c4cnc([C@@H]5CCCN5C(=O)[C@@H](NC(=O)OC)C(C)C)[nH]4)cc(F)c3-2)[nH]1)C1CCOC(C)(C)C1 (single isomer, unassigned) [Compound 80]	–	2.6 pM	24 pM	6 pM	–	3.2 pM	–	–
COC(=O)NC(C(=O)N1[C@@H]2C[C@@H]2C[C@H]1c1ncc(-c2ccc3c(c2)cc2n3C(c3ccc4c(c3)OCCC4)Oc3cc(-c4cnc([C@@H]5CCCN5C(=O)[C@@H](NC(=O)OC)C(C)C)[nH]4)cc(F)c3-2)[nH]1)C1CCO[C@H](C)C1 (single isomer, unassigned) [Compound 82]	2.1 pM	1.7 pM	3 pM	4 pM	–	–	–	–
COC(=O)NC(C(=O)N1CCC[C@H]1c1ncc(-c2ccc3c(c2)cc2n3C(c3ccc4c(c3)OCCC4)Oc3cc(-c4cnc([C@@H]5CCCN5C(=O)[C@@H](NC(=O)OC)C(C)C)[nH]4)cc(C)c3-2)[nH]1)C1C[C@@H](C)O[C@@H](C)C1 (single isomer, unassigned) [Compound 86]	2.7 pM	3 pM	28 pM	7 pM	–	–	–	–
COC(=O)NC(C(=O)N1CCC[C@H]1c1ncc(-c2cc(F)c3c(c2)OC(c2ccc4c(c2)OCCC4)n2c-3cc3cc(-c4cnc([C@@H]5CCCN5C(=O)[C@@H](NC(=O)OC)C5CCOCC5)[nH]4)ccc32)[nH]1)C(C)(C)F (single isomer, unassigned) [Compound 87]	3.4 pM	2.3 pM	528 pM	133 pM	–	–	–	–
COC(=O)NC(C(=O)N1CCC[C@H]1c1ncc(-c2cc(F)c3c(c2)OC(c2ccc4c(c2)OCCC4)n2c-3cc3cc(-c4cnc([C@@H]5CCCN5C(=O)[C@@H](NC(=O)OC)C5CCOCC5)[nH]4)ccc32)[nH]1)C(C)(C)F (single isomer, unassigned) [Compound 88]	–	14.9 pM	9930 pM	3110 pM	–	2.6 pM	–	–
COC(=O)NC(C(=O)N1CCC[C@H]1c1ncc(-c2cc(F)c3c(c2)OC(c2ccc4c(c2)OCCC4)n2c-3cc3cc(-c4cnc([C@@H]5CCCN5C(=O)[C@@H](NC(=O)OC)C5CCOCC5)[nH]4)ccc32)[nH]1)C(C)(C)F (single isomer, unassigned) [Compound 89]	–	2.1 pM	17 pM	15 pM	–	3.1 pM	–	–
